Usually IC50 stands for the point on the concentration scale where inhibition reaches its midpoint.

The target in one assay is T1, human GST-DYRK1A (Homo sapiens, UniProt Q13627).
T1 construct: purified human GST-DYRK1A (full length, Thermo Scientifics) enzyme; purchased Thermo Scientifics
Kind of assay: GST-DYRK1A enzyme inhibition, ADP-Glo kinase assay. To be noted: ATP 10 μM, GST-DYRK1A full length, read-out: DYRK1 IC50. Format: biochemical. In outline: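 Full-length enzyme (10 ng) was incubated with 10 μM ATP and a specific substrate for 1 h at 25 °C in 40 mM Tris-HCl pH 7.4, 20 mM MgCl2, 0.5 mg/mL BSA, 50 μM DTT. Luminescence was read against a solvent control, and IC50 values were derived from 3 data sets.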
(In general: ADP-Glo first removes unused ATP, then detects ADP through luciferase.)

In the next assay the target is T2, human GST-CLK1 (Homo sapiens, UniProt P49759).
T2 construct: purified human GST-CLK1 (129-end, SignalChem) enzyme; purchased SignalChem
The assay is described as follows: GST-CLK1 enzyme inhibition, ADP-Glo kinase assay. Format: biochemical. To be noted: ATP 10 μM, GST-CLK1 129-end. The essentials: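 ADP-Glo luminescence read-out, relative to untreated solvent control, gave IC50 (nM) from triplicate data sets. Reactions ran an hour at 25° C with 3 ng GST-CLK1 (residues 129-end), 10 μM ATP and specific substrate in Tris-HCl pH 7.4 buffer with MgCl2, BSA and DTT.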

The structures appear in SMILES notation.

T2 sequence (P49759 129-484 limits assumed): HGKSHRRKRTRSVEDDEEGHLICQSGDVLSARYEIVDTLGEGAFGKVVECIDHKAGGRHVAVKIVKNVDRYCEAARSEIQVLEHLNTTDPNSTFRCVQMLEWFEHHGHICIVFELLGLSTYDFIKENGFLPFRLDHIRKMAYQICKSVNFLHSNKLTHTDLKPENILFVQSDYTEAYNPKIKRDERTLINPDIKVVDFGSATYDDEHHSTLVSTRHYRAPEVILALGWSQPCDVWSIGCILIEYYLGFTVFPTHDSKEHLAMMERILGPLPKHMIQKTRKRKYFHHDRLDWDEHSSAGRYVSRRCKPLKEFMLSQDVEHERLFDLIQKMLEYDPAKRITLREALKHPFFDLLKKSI

Consider `COc1cc(P2(=O)CCN(C3CC3)CC2)ccc1Nc1nc(NC2CCOCC2)c2c(C#N)c[nH]c2n1` [Example 302, 2-((4-(1-cyclopropyl-4-oxido-1,4-azaphosphinan-4-yl)-2-methoxyphenyl)a-mino)-4-((tetrahydro-2H-pyran-4-yl)amino)-7H-pyrrolo[2,3-d]pyrimidine-5-carbonitrile], for which the IC50 on human GST-DYRK1A and on human GST-CLK1 was 301 to 1000 nM throughout.
`CCNc1nc(Nc2ccc(C(=O)N3CCOCC3)c3c2OCC3)nc2[nH]cc(C#N)c12` [Example 346, 4-(ethylamino)-2-((4-(morpholine-4-carbonyl)-2,3-dihydrobenzo-furan-7-yl)amino)-7H-pyrrolo[2,3-d]pyrimidine-5-carbonitrile]: the figures for the IC50 on human GST-DYRK1A and against human GST-CLK1 were 101 to 300 nM and under 100 nM, respectively.
For the molecule `COc1cc(P2(=O)CCN(C3COC3)CC2)ccc1Nc1nc(N[C@H]2CCOC2)c2c(C#N)c[nH]c2n1` [Example 301, (S)-2-((2-methoxy-4-(1-(oxetan-3-yl)-4-oxido-1,4-azaphosphinan-4-yl)phenyl)amino)-4-((tetrahydrofuran-3-yl)amino)-7H-pyrrolo[2,3-d]pyrimidine-5-carbonitrile], the IC50 at human GST-DYRK1A was 301 to 1000 nM; against human GST-CLK1, under 100 nM.
Take `CC[C@H](C)Nc1nc(Nc2ccc(P3(=O)CCN(C4CC4)CC3)cc2OC)nc2[nH]cc(C#N)c12` [Example 296, (S)-4-(sec-butylamino)-2-((4-(1-cyclopropyl-4-oxido-1,4-azaphosphinan-4-yl)-2-methoxyphenyl)a-mino)-7H-pyrrolo[2,3-d]pyrimidine-5-carbonitrile]: the IC50 on human GST-DYRK1A and against human GST-CLK1 was 301 to 1000 nM throughout.
For the molecule `COc1cc(P(C)(C)=O)ccc1Nc1nc(NC2CCCCC2)c2c(C(F)(F)F)c[nH]c2n1` [Example 196, (4-((4-(cyclohexylamino)-5-(trifluoromethyl)-7H-pyrrolo[2,3-d]pyrimidin-2-yl)amino)-3-methoxyphenyl)dimethylphosphine oxide], the IC50 at human GST-DYRK1A was in the range of 101 to 300 nM; at human GST-CLK1 it was 301 to 1000 nM.
Turning to `CCCCNc1nc(Nc2ccc(C(=O)N3CC(CO)(CO)C3)c3c2OCCO3)nc2[nH]cc(C#N)c12` [Example 341, 2-((8-(3,3-bis (hydroxymethyl)azetidine-1-carbonyl)-2,3-dihydrobenzo [b][1,4]dioxin-5-yl)amino)-4-(butylamino)-7H-pyrrolo[2,3-d]pyrimidine-5-carbonitrile], the IC50 at human GST-DYRK1A was 301 to 1000 nM; at human GST-CLK1, under 100 nM.
For `CNc1nc(Nc2ccc(P(C)(C)=O)cc2OC)nc2[nH]cc(C#N)c12` [Example 253, 2-((4-(dimethylphosphoryl)-2-methoxyphenyl)amino)-4-(methylamino)-7H-pyrrolo[2,3-d]pyrimidine-5-carbonitrile], the IC50 at human GST-DYRK1A and at human GST-CLK1 was 301 to 1000 nM in each case.
With `COc1cc(S(C)(=O)=O)ccc1Nc1nc(N[C@@H]2CCOC2)c2cc[nH]c2n1` [Example 28, (R)-N^2-(2-methoxy-4-(methylsulfonyl)phenyl)-N^4-(tetrahydrofuran-3-yl)-7H-pyrrolo[2,3-d]pyrimidine-2,4-diamine], the IC50 at human GST-DYRK1A and against human GST-CLK1 was 301 to 1000 nM each time.
Regarding `COc1cc(P2(=O)CCN(C3COC3)CC2)ccc1Nc1nc(NCC2CCCC2)c2c(C#N)c[nH]c2n1` [Example 309, 4-((cyclo-pentylmeth-yl)amino)-2-((2-methoxy-4-(1-(oxetan-3-yl)-4-oxido-1,4-azaphosphinan-4-yl)phenyl)amino)-7H-pyrrolo[2,3-d]pyrimidine-5-carbonitrile], the IC50 at human GST-DYRK1A and at human GST-CLK1 was 301 to 1000 nM in each case.
Regarding `COCCNc1nc(Nc2ccc(S(=O)(=O)N3CCC(N4CCOCC4)CC3)cc2OC)nc2[nH]cc(C(N)=O)c12` [Example 233, 2-((2-methoxy-4-((4-morpholinopiperidin-1-yl)sulfonyl)phenyl)amino)-4-((2-methoxyethyl)amino)-7H-pyrrolo[2,3-d]pyrimdiine-5-carboxamide], the IC50 on human GST-DYRK1A and on human GST-CLK1 was 301 to 1000 nM throughout.
Take `CC[C@@H](C)Nc1nc(Nc2ccc(S(C)(=O)=O)cc2OC)nc2[nH]ccc12` [Example 16, (R)-N^4-(sec-butyl)-N^2-(2-methoxy-4-(4-methylsulfonyl)phenyl)-7H-pyrrolo[2,3-d]pyrimidine-2,4-diamine]: the IC50 at human GST-DYRK1A and against human GST-CLK1 was 301 to 1000 nM in each case.
As for `COc1cc(P2(=O)CCN(C3CC3)CC2)ccc1Nc1nc(NC2CCCCC2)c2c(C#N)c[nH]c2n1` [Example 323, 4-(cyclo-hexylamino)-2-((4-(1-cyclopropyl-4-oxido-1,4-azaphosphinan-4-yl)-2-methoxyphenyl)a-mino)-7H-pyrrolo[2,3-d]pyrimidine-5-carbonitrile], the IC50 was in the range of 101 to 300 nM on human GST-DYRK1A and 301 to 1000 nM against human GST-CLK1.
For `N#Cc1c[nH]c2nc(Nc3ccc(C(=O)N4CCOCC4)c4c3OCC4)nc(NC3CCC3)c12` [Example 360, 4-(cyclo-butylamino)-2-((4-(morpholine-4-carbonyl)-2,3-dihydrobenzo-furan-7-yl)amino)-7H-pyrrolo[2,3-d]pyrimidine-5-carbonitrile], in that order: 101 to 300 nM and under 100 nM.
For `COc1cc(P(C)(C)=O)ccc1Nc1nc(NC2CCC2)c2c(C(F)(F)F)c[nH]c2n1` [Example 386, (4-((4-(cyclo-butylamino)-5-(trifluoromethyl)-7H-pyrrolo[2,3-d]pyrimidin-2-yl)amino)-3-methoxyphenyl) dimethyl phosphine oxide], in that order: 301 to 1000 nM and 301 to 1000 nM.
For `N#Cc1c[nH]c2nc(Nc3ccc(C(=O)N4CC(CO)(CO)C4)c4c3OCCO4)nc(N[C@H]3CCOC3)c12` [Example 336, (S)-2-((8-(3,3-bis (hydroxymethyl)azetidine-1-carbonyl)-2,3-dihydrobenzo[b] [1,4]dioxin-5-yl)amino)-4-((tetrahydrofuran-3-yl)amino)-7H-pyrrolo[2,3-d]pyrimidine-5-carbonitrile], in that order: 301 to 1000 nM and under 100 nM.
With `CC[C@H](C)Nc1nc(Nc2ccc(S(=O)(=O)N3CCC(N4CCOCC4)CC3)cc2OC)nc2[nH]ccc12` [Example 17, (S)-N^4-(sec-butyl)-N^2-(2-methoxy-4-((4-morpholinopiperidin-1-yl)sulfonyl)phenyl)-7H-pyrrolo[2,3-d]pyrimidine-2,4-diamine], the IC50 at human GST-DYRK1A and at human GST-CLK1 was 301 to 1000 nM each time.
Take `CCCCNc1nc(Nc2ccc(C(=O)N3CCOCC3)c3c2OCCO3)nc2[nH]cc(C(F)(F)F)c12` [Example 208, (8-((4-(butylamino)-5-(trifluoromethyl)-7H-pyrrolo[2,3-d]pyrimidin-2-yl)amino)-2,3-dihydrobenzo[b][1,4]dioxin-5-yl)(morpholino)methanone]: the IC50 at human GST-DYRK1A and on human GST-CLK1 was 301 to 1000 nM in each case.
As to `COc1cc(P2(=O)CCN(C3COC3)CC2)ccc1Nc1nc(NC2CC2)c2c(C#N)c[nH]c2n1` [Example 286, 4-(cyclo-propylamino)-2-((2-methoxy-4-(1-(oxetna-3-yl)-4-oxido-1,4-azaphosphinan-4-yl)phenyl)amino)-7H-pyrrolo[2,3-d]pyrimidine-5-carbonitrile], the IC50 on human GST-DYRK1A is 301 to 1000 nM; against human GST-CLK1, under 100 nM.
Take `CNc1nc(Nc2ccc(P3(=O)CCN(C4CC4)CC3)cc2OC)nc2[nH]cc(C#N)c12` [Example 279, 2-((4-(1-cyclopropyl-4-oxido-1,4-azaphosphinan-4-yl)-2-methoxyphenyl)amino)-4-(methylamino)-7H-pyrrolo[2,3-d]pyrimidine-5-carbonitrile]: the IC50 at human GST-DYRK1A and against human GST-CLK1 was 301 to 1000 nM in each case.
As for `COc1cc(P2(=O)CCN(C3COC3)CC2)ccc1Nc1nc(NC2CCCCC2)c2cc[nH]c2n1` [Example 240, 4-(4-((4-(cyclohexylamino)-7H-pyrrolo[2,3-d]pyrimidin-2-yl)amino)-3-methoxyphenyl)-1-(oxetan-3-yl)-1,4-azaphosphinane 4-oxide], the IC50 on human GST-DYRK1A and on human GST-CLK1 was 301 to 1000 nM in each case.
In the case of `CS(=O)(=O)CCNc1nc(Nc2ccc(C(=O)N3CCOCC3)c3c2OCC3)nc2[nH]cc(C#N)c12` [Example 344, 4-((2-(methyl-sulfonyl)eth-yl)amino)-2-((4-(morpholine-4-carbonyl)-2,3-dihydrobenzo-furan-7-yl)amino)-7H-pyrrolo[2,3-d]pyrimidine-5-carbonitrile], the IC50 at human GST-DYRK1A is 301 to 1000 nM; against human GST-CLK1, under 100 nM.
For `COc1cc(S(=O)(=O)N2CCC(N3CCOCC3)CC2)ccc1Nc1nc(N[C@H]2CCOC2)c2cc[nH]c2n1` [Example 29, (S)-N^2-(2-methoxy-4-((4-morpholinopiperidin-1-yl)sulfonyl)phenyl)-N^4-(tetrahydrofuran-3-yl)-7H-pyrrolo[2,3-d]pyrimidine-2,4-diamine], in that order: 301 to 1000 nM and 301 to 1000 nM.
For `O=C(c1ccc(Nc2nc(NCC3CCC3)c3c(C(F)(F)F)c[nH]c3n2)c2c1OCCO2)N1CCOCC1` [Example 193, (8-((4-((cyclobutylmethyl)amino)-5-(trifluoromethyl)-7H-pyrrolo[2,3-d]pyrimidin-2-yl)amino)-2,3-dihydrobenzo[b][1,4]dioxin-5-yl)(morpholino)methanone], in that order: 301 to 1000 nM and 301 to 1000 nM.

The values are drawn from patent publication US20230066011A1, “PYRROLOPYRIMIDINE DERIVATIVE, AND PHARMACEUTICAL COMPOSITION FOR PREVENTING OR TREATING PROTEIN KINASE-RELATED DISEASE COMPRISING SAME AS ACTIVE INGREDIENT” (VORONOI CO., LTD., priority 2019, published 2023).
